Measurements from the NIST ThermoML archive (doi:10.1016/j.jct.2016.05.017).
“And” between values parts separate entries of the source, which are not always exact repeats. Equal entries are not always repeated. Numbers after ± are expanded uncertainties.

Experiments:
[1] = for vapor or sublimation pressure: Transpiration method; for Triple point temperature: DSC
[2] = Molar enthalpy of transition or fusion; conditions: Crystal; DSC

CC(=O)C12CC3CC(CC(C3)C1)C2 [1-adamantyl methyl ketone]
[1]
Conditions | vapor or sublimation pressure
291.6 K, Crystal | 0.00076 ± 5e-05 kPa
293.7 K, Crystal | 0.00099 ± 7e-05 kPa
296.5 K, Crystal | 0.00136 ± 0.0001 kPa
298.4 K, Crystal | 0.00174 ± 0.00013 kPa
303.3 K, Crystal | 0.00299 ± 0.0002 kPa
308.2 K, Crystal | 0.00505 ± 0.00033 kPa
308.4 K, Crystal | 0.00506 ± 0.00033 kPa
313.2 K, Crystal | 0.0085 ± 0.00059 kPa
316.2 K, Crystal | 0.01174 ± 0.00079 kPa
318.2 K, Crystal | 0.01406 ± 0.00094 kPa
318.7 K, Crystal | 0.01511 ± 0.001 kPa
320.3 K, Crystal | 0.01713 ± 0.0011 kPa
323.3 K, Crystal | 0.02368 ± 0.0016 kPa
331.3 K, Liquid | 0.0399 ± 0.0025 kPa and 0.0404 ± 0.0025 kPa
333.2 K, Liquid | 0.04637 ± 0.003 kPa and 0.0468 ± 0.003 kPa
335.2 K, Liquid | 0.0516 ± 0.0032 kPa
338.2 K, Liquid | 0.0633 ± 0.004 kPa
341.2 K, Liquid | 0.0767 ± 0.0048 kPa
343.1 K, Liquid | 0.08701 ± 0.0055 kPa
346.2 K, Liquid | 0.1025 ± 0.0065 kPa
348.1 K, Liquid | 0.1221 ± 0.0077 kPa
348.3 K, Liquid | 0.1231 ± 0.0077 kPa
351.7 K, Liquid | 0.1433 ± 0.0097 kPa
352.1 K, Liquid | 0.1514 ± 0.0095 kPa
353.1 K, Liquid | 0.1567 ± 0.0098 kPa
355.5 K, Liquid | 0.1853 ± 0.012 kPa
356 K, Liquid | 0.1912 ± 0.012 kPa
358.1 K, Liquid | 0.2111 ± 0.013 kPa
358.2 K, Liquid | 0.2186 ± 0.014 kPa
360.4 K, Liquid | 0.2451 ± 0.015 kPa
363.1 K, Liquid | 0.2835 ± 0.018 kPa

Conditions | Triple point temperature [K]
[1], Crystal | 325.2 ± 1.2

Conditions | Molar enthalpy of transition or fusion [kcal/mol]
[2] | 4.66 ± 0.167

O=C1C2CC3CC(C2)CC1C3 [2-adamantanone]
[1], Crystal
Conditions | vapor or sublimation pressure [kPa]
293.5 K | 0.00109 ± 8e-05
296.4 K | 0.00142 ± 0.0001
297.4 K | 0.00156 ± 0.0001
298.5 K | 0.00172 ± 0.00012
300.4 K | 0.00199 ± 0.00013
303.4 K | 0.00258 ± 0.00017
306.4 K | 0.00341 ± 0.00023
308.4 K | 0.00417 ± 0.00028
313.4 K | 0.00608 ± 0.00043
318.4 K | 0.00903 ± 0.00061
323.4 K | 0.01275 ± 0.00084
328.4 K | 0.01873 ± 0.0012
333.4 K | 0.02597 ± 0.0017
338.5 K | 0.03782 ± 0.0024
343.3 K | 0.05432 ± 0.0034
348.4 K | 0.07513 ± 0.0047
353.3 K | 0.09857 ± 0.0062
358.3 K | 0.1302 ± 0.0082
363.4 K | 0.1815 ± 0.011
368.4 K | 0.2462 ± 0.015
373.4 K | 0.3099 ± 0.019

O=C(O)C1C2CC3CC(C2)CC1C3 (stereo not given) [adamantane-2-carboxylic acid]
[1], Crystal
Conditions | vapor or sublimation pressure
344.3 K | 0.00066 ± 5e-05 kPa
347.3 K | 0.00087 ± 7e-05 kPa
350.3 K | 0.00113 ± 8e-05 kPa
353.4 K | 0.00157 ± 0.0001 kPa
355.4 K | 0.0018 ± 0.00012 kPa
356.4 K | 0.00212 ± 0.00015 kPa
358.4 K | 0.00246 ± 0.00017 kPa
360.4 K | 0.00307 ± 0.0002 kPa
362.4 K | 0.00345 ± 0.00023 kPa
364.4 K | 0.00436 ± 0.00028 kPa
365.8 K | 0.0048 ± 0.00032 kPa
368.3 K | 0.00577 ± 0.0004 kPa
368.4 K | 0.00595 ± 0.00041 kPa
369.4 K | 0.00628 ± 0.00044 kPa
370.4 K | 0.00725 ± 0.00051 kPa
371.4 K | 0.00757 ± 0.00052 kPa
373.4 K | 0.00923 ± 0.00063 kPa
374.4 K | 0.00992 ± 0.00067 kPa
376.4 K | 0.01193 ± 0.00079 kPa
377.4 K | 0.01257 ± 0.00083 kPa and 0.01301 ± 0.00086 kPa
378.4 K | 0.01382 ± 0.00091 kPa
380.3 K | 0.01584 ± 0.001 kPa
381.3 K | 0.01701 ± 0.0011 kPa
383.4 K | 0.02003 ± 0.0013 kPa
386.4 K | 0.02497 ± 0.0016 kPa

Conditions | Triple point temperature [K]
[1], Crystal | 416.3 ± 1.2

Conditions | Molar enthalpy of transition or fusion [kcal/mol]
[2] | 2.34 ± 0.239

O=C(O)C12CC3CC(CC(C3)C1)C2 [tricyclo[3.3.1.1(3,7)]decane-1-carboxylic acid]
[1], Crystal
Conditions | vapor or sublimation pressure [kPa]
345.2 K | 0.0009 ± 7e-05
348.2 K | 0.00122 ± 9e-05
353.2 K | 0.00193 ± 0.00013
356.7 K | 0.00266 ± 0.00018
360.2 K | 0.00382 ± 0.00025
362.2 K | 0.00453 ± 0.0003
365.2 K | 0.00575 ± 0.00037
367.7 K | 0.00692 ± 0.00049
370.2 K | 0.00896 ± 0.00061
370.3 K | 0.00895 ± 0.00061
373.2 K | 0.01102 ± 0.00073
375.2 K | 0.01263 ± 0.00084
377.3 K | 0.01524 ± 0.001
377.7 K | 0.01587 ± 0.0011
380.2 K | 0.01902 ± 0.0013
382.2 K | 0.02303 ± 0.0015
385.3 K | 0.02961 ± 0.0019

Conditions | Triple point temperature [K]
[1], Crystal | 449.1 ± 1.2

Conditions | Molar enthalpy of transition or fusion [kcal/mol]
[2] | 4.21 ± 0.167
